Assay results: patent US6048852A, “β-thiopropionyl-aminoacid derivatives and their use as β-lactamase inhibitors” (SmithKline Beecham p.l.c., priority 1996, dated 2000)
Where two headings read alike, the source gives them in different places.

What was measured:
[1] = target: B. fragilis CfiA metallo-β-lactamase (Bacteroides fragilis, UniProt P25910); assay: I50 screen, nitrocefin reporter substrate, CfiA metallo-β-lactamase; format: biochemical; conditions: 25 mM PIPES pH 7, 37° C., nitrocefin 91 μM, 5 minute preincubation, Zn2+ 100 μM; enumerated Examples; read-out: I50 values against B. fragilis CfiA metallo-β-lactamase
Description: The inhibitory activity of the compounds of the invention was measured in 25 mM PIPES pH 7 buffer at 10 concentrations (1000, 333, 111, 37, 12.3, 4.1, 1.4, 0.46, 0.15 and 0.05 μM) at 37° C. using nitrocefin (91 μM final concentration) as the reporter substrate. The assays were performed with a 5 minute preincubation of enzyme and inhibitor and were conducted in the presence of added zinc sulphate (Zn^2+ 100 μM, final concentration). the methodology is described in detail in the following references: Payne et al (1991), J. Antimicrob. Chemother., 28:255; Payne et al (1994), Antimicrob. Agents and Chemother., 38:767.

[2] = tested on: Bacteroides fragis 262 strain, which produces CfiA metallo-β-lactamase; assay: Antibacterial activity (MIC) in combination with meropenem; format: cell-based, Bacteroides fragilis
Text: Antibacterial activity of compounds of the invention in combination with the carbapenem antibiotic, meropenem, against the Bacteroides fragis 262 strain, which produces CfiA metallo-β-lactamase:
[MIC=minimum inhibitory concentration (μg/ml)]

[3] = read-out: MIC (μg/ml) of compound alone

Sequence of B. fragilis CfiA metallo-β-lactamase (P25910 19-249): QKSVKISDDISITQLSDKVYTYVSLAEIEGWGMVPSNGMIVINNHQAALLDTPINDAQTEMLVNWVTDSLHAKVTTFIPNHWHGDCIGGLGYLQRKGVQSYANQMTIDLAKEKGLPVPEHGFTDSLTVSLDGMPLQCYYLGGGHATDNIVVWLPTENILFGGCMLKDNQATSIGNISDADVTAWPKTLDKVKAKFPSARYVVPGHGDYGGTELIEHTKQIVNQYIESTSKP

Structure (SMILES)	IC50 [1]	MIC [2, 3]	MIC ([2]; read-out: MIC (μg/ml) of meropenem alone)
O=C(NC(C(=O)O)c1ccsc1)C(CS)Cc1ccccc1 (stereo not drawn) [Example 43, N-[2'-Benzyl-3'-mercaptopropionyl]-2-(3"-thienyl)glycine]	< 1000 nM	> 128 µg/mL	
O=C(O)c1ccc(CCC(CS)C(=O)N[C@@H](C(=O)O)c2ccccc2)cc1 (single isomer, unassigned) [46 (Isomer A), N-[2'-(Mercaptomethyl)-4'-(4"-hydroxycarbonyl)phenylbutanoyl]-D-phenylglycine]	< 1000 nM		
Cn1cc(C(NC(=O)C(CS)Cc2ccccc2)C(=O)O)cn1 (stereo not drawn) [Example 25, N-[2'-Benzyl-3'-mercaptopropionyl]4-[1-methylisoiinidazolyl]glycine]	< 1000 nM		
O=C(N[C@@H](C(=O)O)c1ccccc1)C(CS)CCOc1ccccc1 (stereo partly drawn) [Example 42, N-[2'-Mercaptomethyl-4'-phenoxybutanoyl]-D-phenylglycine]	< 1000 nM		
Cc1ccc(C(NC(=O)C(CS)Cc2ccccc2)C(=O)O)cc1 (stereo not drawn) [Example 24, N-[2'-Benzyl-3'-mercaptopropionyl]-4-methylphenylglycine]	< 1000 nM	> 128 µg/mL	
O=C(N[C@@H](C(=O)O)c1ccc(O)cc1)C(CS)Cc1ccccc1 (stereo partly drawn) [Example 12, N-[2'-Benzyl-3'-mercaptopropionyl]-4-hydroxy-D-phenylglycine]	< 1000 nM	> 128 µg/mL	
O=C(N[C@@H](C(=O)O)c1ccccc1)C(CS)CCc1ccc(OC(F)F)cc1 (stereo partly drawn) [Example 55, N-[2'-Mercaptomethyl-4'-(4"-difluoromethoxphenyl)butanoyl)-D-phenylglycine]	< 1000 nM	> 128 µg/mL	
O=C(N[C@@H](C(=O)O)c1ccccc1)[C@@H](CS)CCCCCc1ccccc1 [40f), N-[(S)-2'-Mercaptomethyl-7'-phenylheptanoyl]-D-phenylglycine]	< 1000 nM		
O=C(N[C@@H](C(=O)O)c1cccc([N+](=O)[O-])c1)C(CS)Cc1ccccc1 (stereo partly drawn) [Example 18, N-[2'-Benzyl-3'-mercaptopropionyl]-3-nitro-D-phenylglycine]	< 1000 nM		
O=C(NC(C(=O)O)c1ccoc1)C(CS)Cc1ccccc1 (stereo not drawn) [Example 32, N-[2'-Benzyl-3'-mercaptopropionyl]-2-(3"-furanyl)glycine]	< 1000 nM	> 128 µg/mL	
O=C(N[C@@H](C(=O)O)c1ccccc1)C(CS)CCCCc1ccccc1 (stereo partly drawn) [Example 39, N-[2'-Mercaptomethyl-6'-phenylhexanoyl]-D-phenylglycine]	< 1000 nM		
O=C(NC(C(=O)O)c1cc2ccccc2s1)C(CS)Cc1ccccc1 (stereo not drawn) [Example 31, N-[2'-Benzyl-3'-mercaptopropionyl]-2-(2"-benzothienyl)glycine]	< 1000 nM	> 128 µg/mL	
CC(S)C(Cc1ccccc1)C(=O)N[C@@H](C(=O)O)c1ccccc1 (single isomer, unassigned) [Example 50 (Isomer B), N-[2'-Benzyl-3'-mercaptobutanoyl]-D-phenylglycine]	< 1000 nM		
O=C(N[C@@H](C(=O)O)c1ccccc1)[C@@H](CS)Cc1ccccc1 [9i), [2'S]-N-[2'-Benzyl-3'-mercaptopropionyl]-D-phenylglycine]	< 1000 nM		
C[C@@H](O)[C@H]1C(=O)N2C(C(=O)O)=C(S[C@@H]3CN[C@H](C(=O)N(C)C)C3)[C@H](C)[C@H]12 [meropenem, reference compound]			> 128 µg/mL
O=C(N[C@@H](C(=O)O)c1ccccc1)C(CS)Cc1ccccc1 (stereo partly drawn) [Example 9k), N-[2'-Benzyl-3'-mercaptopropionyl]-D-phenylglycine]	< 1000 nM	> 128 µg/mL	
O=C(N[C@@H](C(=O)O)c1ccc(O)c(O)c1)C(CS)Cc1ccccc1 (stereo partly drawn) [Example 15, N-[2'-Benzyl-3'-mercaptopropionyl]-3,4-dihydroxy-D-phenylglycine]	< 1000 nM		
CC(C)CC(C(=O)N[C@@H](C(=O)O)c1ccccc1)C(C)S (stereo partly drawn) [Example 27, N-[2'-Isobutyl-3'-mercaptobutanoyl]-D phenylglycine]	< 1000 nM	> 128 µg/mL	
O=C(N[C@H](Cc1c[nH]c2ccccc12)C(=O)O)C(CS)Cc1ccccc1 (stereo partly drawn) [5e), N-[2'-Benzyl-3'-mercaptopropionyl]-D-tryptophan]	< 1000 nM		
CC(C)CC(CS)C(=O)N[C@@H](C(=O)O)c1ccccc1 (stereo partly drawn) [Example 23, N-(4-Methyl-2-mercaptomethylpentanoyl]-D-phenylglycine]	< 1000 nM	> 128 µg/mL	

Structure (SMILES)	IC50 [1]	MIC [2, 3]	MIC ([2]; read-out: MIC (μg/ml) of meropenem alone)
CC(S)C(CCc1ccccc1)C(=O)N[C@@H](C(=O)O)c1ccccc1 (stereo partly drawn) [Example 44, N-[2'-(1"-Mercaptoethyl)-4'-phenylbutanoyl]-D-phenylglycine]	< 1000 nM		
O=C(NC(C(=O)O)c1ccco1)C(CS)Cc1ccccc1 (stereo not drawn) [Example 30, N-[2'-Benzyl-3'-mercaptopropionyl]-2-(2"-furanyl)glycine]	< 1000 nM		
CC(CS)C(=O)N[C@@H](C(=O)O)c1ccccc1 (stereo partly drawn) [Example 22, N-[2'-Methyl-3'-mercaptopropionyl]-D-phenylglycine]	< 1000 nM	> 128 µg/mL	
O=C(NC(C(=O)O)c1ccccc1)C(CS)Cc1ccccc1 (stereo not drawn) [Example 9e), N-[2'-Benzyl-3'-mercaptopropionyl]phenylglycine]	< 1000 nM		
O=C(NC(C(=O)O)c1ccc(O)c([N+](=O)[O-])c1)C(CS)Cc1ccccc1 (stereo not drawn) [Example 14, N-[2'-Benzyl-3'-mercaptopropionyl]-4-hydroxy-3-nitrophenylglycine]	< 1000 nM	> 128 µg/mL	
O=C(NC(C(=O)O)c1ccccc1F)C(CS)Cc1ccccc1 (stereo not drawn) [Example 19, N-[2'-Benzyl-3'-mercaptopropionyl]-2-fluorophenylglycine]	< 1000 nM	> 128 µg/mL	
O=C(NC(C(=O)O)c1cccs1)C(CS)Cc1ccccc1 (stereo not drawn) [Example 20, N-[2'-Benzyl-3'-mercaptopropionyl]-2-thienylglycine]	< 1000 nM		
CC(S)C(Cc1ccccc1)C(=O)N[C@@H](C(=O)O)c1ccccc1 (single isomer, unassigned) [Example 50 (Isomer C), N-[2'-Benzyl-3'-mercaptobutanoyl]-D-phenylglycine]	< 1000 nM		
O=C(N[C@@H](C(=O)O)c1ccccc1)[C@@H](CS)CCCc1ccccc1 [38f), N-[(S)-2'-Mercaptomethyl-5'-phenylpentanoyl]-D-phenylglycine]	< 1000 nM	> 128 µg/mL	
COc1ccc(C(NC(=O)C(CS)Cc2ccccc2)C(=O)O)cc1 (stereo not drawn) [Example 13, N-[2'-Benzyl-3'-mercaptopropionyl]4-methoxyphenylglycine]	< 1000 nM	> 128 µg/mL	
O=C(N[C@@H](C(=O)O)c1ccccc1)C(CS)CCc1ccc2nc(C(F)(F)F)ccc2c1 (single isomer, unassigned) [47 (Isomer B), N-[2'-(Mercaptomethyl)-4'-(2"-trifluoromethylquinolin-6"-yl)butanoyl]-D-phenylglycine]	< 1000 nM		
O=C(N[C@@H](C(=O)O)c1ccccc1)C(Cc1ccccc1)C1(S)CC1 (stereo partly drawn) [Example 52, N-[2'-Benzyl-2'-(1"-mercaptocyclopropyl)acetyl]-D-phenylglycine]		> 128 µg/mL	
CCC(S)C(Cc1ccccc1)C(=O)N[C@@H](C(=O)O)c1ccccc1 (stereo partly drawn) [Example 49, N-[2-Benzyl-3-mercaptopentanoyl]-D-phenylglycine]		> 128 µg/mL	
O=C(N[C@@H](Cc1c[nH]c2ccccc12)C(=O)O)C(CS)Cc1ccccc1 (stereo partly drawn) [5d), N-[2'-Benzyl-3'-mercaptopropionyl]tryptophan]	< 1000 nM		
O=C(N[C@@H](C(=O)O)c1ccccc1)C(CS)C1CCc2ccccc21 (stereo partly drawn) [Example 41, N-[2'-(Indan-1-yl)-3'-mercaptopropanoyl]-D-phenylglycine]	< 1000 nM		
CC(S)C(Cc1ccccc1)C(=O)N[C@@H](C(=O)O)c1ccccc1 (single isomer, unassigned) [Example 50 (all isomers), N-[2'-Benzyl-3'-mercaptobutanoyl]-D-phenylglycine]		> 128 µg/mL	
O=C(N[C@@H](C(=O)O)c1ccccc1)[C@@H](CS)CCc1ccccc1 [37f), N-[(S)-2'-Mercaptomethyl-4'-phenylbutanoyl]-D-phenylglycine]	< 1000 nM	> 128 µg/mL	
O=C(NC(C(=O)O)c1cccc(F)c1)C(CS)Cc1ccccc1 (stereo not drawn) [Example 17, N-[2'-Benzyl-3'-mercaptopropionyl]-3-fluorophenylglycine]	< 1000 nM		
O=C(N[C@@H](C(=O)O)c1ccc(F)cc1)C(CS)Cc1ccccc1 (stereo partly drawn) [Example 16, N-[2'-Benzyl-3'-mercaptopropionyl]-4-fluoro-D-phenylglycine]	< 1000 nM		
